Measurements taken from PMC4052943 (BioMed Research International, 2014).
Where two headings read alike, the source gives them in different places.

What was measured:
[1] = tested on: Salmonella typhimurium TA97a; assay: Ames antimutagenicity assay (preincubation); settings: TA 97a;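 further: compound and mutagen preincubated together 30 min at 37 °C before adding bacteria, then plated on minimal glucose agar for 48 h and His+ revertant colonies counted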
Method: In the preincubation experiment, test compounds and mutagen, each having a volume of 0.1 mL of varying concentrations, were preincubated at 37°C for 30 min and then 0.1 mL of 1 × 10^7 CFU/mL density of the bacterial culture was added, followed by the addition of 2.5 mL of top agar at 45°C (containing 0.5% NaCl and 0.6% agar) supplemented with 0.5 mM histidine-biotin. […] The combined solutions were vortexed and poured onto minimal glucose plates (40% glucose solution and Vogel Bonner medium). The plates were incubated at 37°C for 48 h and the numbers of histidine-independent revertants colonies were scored.
Survival of the bacteria was routinely monitored for each experiment. Parallel controls were run with compounds alone at all concentrations to test the possible toxicity. The concentrations of the test samples for investigating the antimutagenicity were 50, 100, 200, and 500 μM. […] All the test samples and mutagens were dissolved in DMSO (final conc., 0.01%). […] Plates were set up in triplicate for each concentration and the entire experiment was repeated three times. Inhibition of mutagenicity was expressed as percentage decrease of reverse mutation and calculated as (1) Percent inhibition=[(a−b)/(a−c)]×100, where a = number of histidine revertants induced by mutagen, b = number of histidine revertants induced by mutagen in the presence of test compound, and c = number of revertants induced in negative control.

[2] = tested on: Salmonella typhimurium TA100; assay: Ames antimutagenicity assay (preincubation); settings: for inhibition at 50 µM / inhibition at 100 µM / inhibition at 250 µM / inhibition at 500 µM: Salmonella enterica, TYPHIMURIUM;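 on all read-outs here: compound and mutagen preincubated together 30 min at 37°C before bacteria added, then plates incubated 48 h at 37°C, inhibition relative to mutagen-alone revertants after subtracting the negative control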
H1299 cells = assay: MTT cell proliferation assay; assay type: cell-based; settings: Homo sapiens, NCI-H1299, 48 h, read-out: inhibition of cells (antiproliferative activity, MTT)
Method: (§1) Inhibition of cell proliferation by PC and EA was measured with the MTT assay. Human lung cancer A549 and H1299 cells were obtained from ATCC (Manassas, VA, USA) and maintained in DMEM supplemented with 10% fetal calf serum (FCS), 1% penicillin/streptomycin. Cells were plated in 96-well culture plates (5 × 10^3 cells/well). After 24 h incubation, cells were treated with vehicle alone (0.1% DMSO) and PC and EA (12.5–200 μg/mL) extracts for 48 h. Then, the culture medium was replaced by 100 μL of fresh medium containing 0.5 mg/mL MTT, and the plates were incubated for 2 h at 37°C. The medium was then removed and was replaced by 200 μL of DMSO to solubilize the converted purple dye. The absorbance was measured with a spectrophotometer microplate reader at a wavelength of 570 nm.

A549 cells = assay: MTT cell proliferation assay; assay type: cell-based; settings: Homo sapiens, A549, 48 h, read-out: inhibition of cells (antiproliferative activity, MTT)
Method: as §1

O=C1O[C@H]2[C@@H]3OC(=O)c4cc(O)c(O)c(O)c4-c4c(O)c(O)c5oc(=O)c6c(c(O)c(O)c7oc(=O)c4c5c76)-c4c(cc(O)c(O)c4O)C(=O)OC[C@H]3OC(O)[C@@H]2OC(=O)c2cc(O)c(O)c(O)c2-c2c1cc(O)c(O)c2O (mixture of isomers) [Punicalagin]
Number of His+ revertants colonies/plate ([1]; 50 μM + 2AF, S9): 304.7 ± 19.8 colonies/plate
Number of His+ revertants colonies/plate ([1]; 50 μM + BP, S9): 645.3 ± 28.7 colonies/plate
Number of His+ revertants colonies/plate ([1]; 50 μM + MMS, no S9): 418.3 ± 11.7 colonies/plate
Number of His+ revertants colonies/plate ([1]; 50 μM + NaN3, no S9): 244.3 ± 6.7 colonies/plate
Number of His+ revertants colonies/plate ([1]; 100 μM + 2AF, S9): 270.3 ± 10.1 colonies/plate
Number of His+ revertants colonies/plate ([1]; 100 μM + BP, S9): 538.3 ± 28.9 colonies/plate
Number of His+ revertants colonies/plate ([1]; 100 μM + MMS, no S9): 390.7 ± 10.2 colonies/plate
Number of His+ revertants colonies/plate ([1]; 100 μM + NaN3, no S9): 221.0 ± 7.1 colonies/plate
Number of His+ revertants colonies/plate ([1]; 250 μM + BP, S9): 431.0 ± 18.4 colonies/plate
Number of His+ revertants colonies/plate ([1]; 250 μM + MMS, no S9): 326.0 ± 7.8 colonies/plate
Number of His+ revertants colonies/plate ([1]; 250 μM + NaN3, no S9): 202.3 ± 8.7 colonies/plate
Number of His+ revertants colonies/plate ([1]; 500 μM + 2AF, S9): 220.0 ± 9.3 colonies/plate
Number of His+ revertants colonies/plate ([1]; 500 μM + BP, S9): 316.0 ± 17.6 colonies/plate
Number of His+ revertants colonies/plate ([1]; 500 μM + MMS, no S9): 251.0 ± 9.0 colonies/plate
% inhibition of mutagenicity ([1]; 500 μM + MMS, no S9, 500 µM): 72.1%
Number of His+ revertants colonies/plate ([1]; 500 μM + MMS, no S9, listed as PC): 251 colonies/plate
Number of His+ revertants colonies/plate ([1]; 500 μM + NaN3, no S9): 195.0 ± 10.8 colonies/plate
inhibition at 50 µM ([2]; read-out: % inhibition of mutagenicity, TA 100, 50 μM + 2AF, S9): 22.4%
inhibition at 50 µM ([2]; read-out: % inhibition of mutagenicity, TA 100, 50 μM + BP, S9): 30.6%
inhibition at 50 µM ([2]; read-out: % inhibition of mutagenicity, TA 100, 50 μM + MMS, no S9): 13.8%
inhibition at 50 µM ([2]; read-out: % inhibition of mutagenicity, TA 100, 50 μM + NaN3, no S9): 11.3%
inhibition at 100 µM ([2]; read-out: % inhibition of mutagenicity, TA 100, 100 μM + 2AF, S9): 43.8%
inhibition at 100 µM ([2]; read-out: % inhibition of mutagenicity, TA 100, 100 μM + BP, S9): 48.3%
inhibition at 100 µM ([2]; read-out: % inhibition of mutagenicity, TA 100, 100 μM + MMS, no S9): 30.8%
inhibition at 100 µM ([2]; read-out: % inhibition of mutagenicity, TA 100, 100 μM + NaN3, no S9): 33.1%
inhibition at 250 µM ([2]; read-out: % inhibition of mutagenicity, TA 100, 250 μM + BP, S9): 64%
inhibition at 250 µM ([2]; read-out: % inhibition of mutagenicity, TA 100, 250 μM + MMS, no S9): 45.3%
inhibition at 250 µM ([2]; read-out: % inhibition of mutagenicity, TA 100, 250 μM + NaN3, no S9): 54.6%
inhibition at 500 µM ([2]; read-out: % inhibition of mutagenicity, TA 100, 500 μM + 2AF, S9): 83.1%
inhibition at 500 µM ([2]; read-out: % inhibition of mutagenicity, TA 100, 500 μM + BP, S9): 84.5%
inhibition at 500 µM ([2]; read-out: % inhibition of mutagenicity, TA 100, 500 μM + MMS, no S9): 66%
inhibition at 500 µM ([2]; read-out: % inhibition of mutagenicity, TA 100, 500 μM + NaN3, no S9): 74.3%
Number of His+ revertants colonies/plate ([2]; TA 100, 50 μM + 2AF, S9): 426.7 ± 28.3 colonies/plate
Number of His+ revertants colonies/plate ([2]; TA 100, 50 μM + BP, S9): 530.3 ± 26.4 colonies/plate
Number of His+ revertants colonies/plate ([2]; TA 100, 50 μM + MMS, no S9): 856.3 ± 13.1 colonies/plate
Number of His+ revertants colonies/plate ([2]; TA 100, 50 μM + NaN3, no S9): 342.0 ± 4.7 colonies/plate
Number of His+ revertants colonies/plate ([2]; TA 100, 100 μM + 2AF, S9): 358.0 ± 12.2 colonies/plate
Number of His+ revertants colonies/plate ([2]; TA 100, 100 μM + BP, S9): 442.7 ± 31.4 colonies/plate
Number of His+ revertants colonies/plate ([2]; TA 100, 100 μM + MMS, no S9): 722.0 ± 15.0 colonies/plate
Number of His+ revertants colonies/plate ([2]; TA 100, 100 μM + NaN3, no S9): 301.7 ± 7.8 colonies/plate
Number of His+ revertants colonies/plate ([2]; TA 100, 250 μM + BP, S9): 366.0 ± 20.2 colonies/plate
Number of His+ revertants colonies/plate ([2]; TA 100, 250 μM + MMS, no S9): 601.3 ± 12.3 colonies/plate
Number of His+ revertants colonies/plate ([2]; TA 100, 250 μM + NaN3, no S9): 254.3 ± 10.8 colonies/plate
Number of His+ revertants colonies/plate ([2]; TA 100, 500 μM + 2AF, S9): 245.0 ± 9.6 colonies/plate
Number of His+ revertants colonies/plate ([2]; TA 100, 500 μM + BP, S9): 270.7 ± 15.6 colonies/plate
Number of His+ revertants colonies/plate ([2]; TA 100, 500 μM + MMS, no S9): 451.7 ± 15.6 colonies/plate
Number of His+ revertants colonies/plate ([2]; TA 100, 500 μM + NaN3, no S9): 232.3 ± 9.4 colonies/plate
inhibition at 50 µg/mL (H1299 cells): 57%
inhibition at 50 µg/mL (A549 cells): 34%
